# Laboratory results taken from ChEMBL document CHEMBL4000252, “Discovery of N-(2-aminoethyl)-N-benzyloxyphenyl benzamides: New potent Trypanosoma brucei inhibitors” (Bioorg Med Chem, 2017).
# Tests used:
# [1] = test system: Trypanosoma brucei brucei; experiment: Antiparasitic activity against Trypanosoma brucei brucei BF427 assessed as growth inhibition after 48 hrs by Alamar blue assay; type: functional; conditions: BF427, 48 h
# HepG2 = experiment: Cytotoxicity against human HepG2 cells assessed as growth inhibition after 48 hrs by Alamar blue assay; type: cell-based; conditions: hepg2, 48 h
# [2] = Cytotoxicity against human CRL8155 cells assessed as growth inhibition after 48 hrs by Alamar blue assay; type: cell-based; conditions: crl8155, 48 h
# Cytochrome P450 3A4 = Cytochrome P450 3A4 (Homo sapiens, UniProt P08684); experiment: Inhibition of human CYP3A4; type: ADME
# [3] = test system: Trypanosoma brucei rhodesiense; experiment: Antiparasitic activity against Trypanosoma brucei rhodesiense STIB900 infected in Swiss-Webster mouse assessed as cure rate at 50 mg/kg, bid administered via oral gavage from day 2 to 5 post infection measured after 60 days by microscopic method relative to control; type: functional
# Liver = experiment: Half life in human liver microsomes at 1.5 uM by LC-MS analysis; type: ADME, microsome
# [4] = Cmax in mouse at 50 mg/kg, po by LC-MS analysis; type: ADME, organism-based; design: dose 50 mg/kg, route oral; conditions: in vivo
# [5] = Ratio of drug level in brain to plasma in mouse at 5 mg/kg, ip after 1 hr by LC-MS analysis; type: ADME, organism-based
# [6] = AUC (0 to 8 hrs) in mouse at 50 mg/kg, po by LC-MS analysis; type: ADME, organism-based; design: dose 50 mg/kg, time < 8 hr, route oral; conditions: in vivo
# Sequence of Cytochrome P450 3A4 (P08684 whole entry): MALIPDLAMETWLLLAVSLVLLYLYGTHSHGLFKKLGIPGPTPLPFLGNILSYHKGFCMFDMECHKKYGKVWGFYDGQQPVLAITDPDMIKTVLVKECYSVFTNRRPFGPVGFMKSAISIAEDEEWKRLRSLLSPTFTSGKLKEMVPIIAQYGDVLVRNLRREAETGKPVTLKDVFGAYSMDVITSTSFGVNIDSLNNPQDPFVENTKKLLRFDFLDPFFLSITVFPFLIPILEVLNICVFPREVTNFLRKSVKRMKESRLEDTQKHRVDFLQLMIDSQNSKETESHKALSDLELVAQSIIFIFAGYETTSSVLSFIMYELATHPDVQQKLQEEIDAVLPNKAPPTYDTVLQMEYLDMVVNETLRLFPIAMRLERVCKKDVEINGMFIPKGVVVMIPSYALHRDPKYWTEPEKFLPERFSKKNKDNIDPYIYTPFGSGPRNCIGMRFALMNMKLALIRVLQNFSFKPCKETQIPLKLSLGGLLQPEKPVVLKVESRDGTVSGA
Structure (SMILES),EC50 [1],other results
O=C(c1ccc(Cl)cc1Cl)N(Cc1cccs1)c1ccc(Cl)cc1,> 10 µM,
NCCCN(C(=O)c1ccc(Cl)cc1Cl)c1ccc(Cl)cc1,2.9 µM,
NCCN(C(=O)c1cccnc1Cl)c1ccc(OCc2ccc(Cl)cc2)cc1,0.03 µM,CC50 (HepG2): 15.2 µM; CC50 [2]: 11.5 µM
NCCN(C(=O)c1cc(Cl)cc(Cl)c1)c1ccc(Cl)cc1,1.08 µM,
Cc1ccccc1C(=O)N(CCN)c1ccc(Cl)cc1,0.52 µM,
NCCN(C(=O)c1ccc(Cl)cc1Cl)c1ccc(N)cc1,> 10 µM,CC50 [2]: 11 µM
NCCN(C(=O)c1ccccc1)c1ccc(Cl)cc1,13 µM,
NCCN(C(=O)c1ccc(F)cc1)c1ccc(Cl)cc1,4.01 µM,
NCCN(C(=O)c1ccc(Cl)cc1Cl)c1ccc(Cl)cc1Cl,0.51 µM,
NCCN(C(=O)c1ccc(Cl)cc1Cl)c1ccc(F)c(Cl)c1,2.72 µM,
NCCN(C(=O)c1cccnc1C(F)(F)F)c1ccc(OCc2ccc(Cl)cc2)cc1,0.003 µM,CC50 (HepG2): 10.2 µM; CC50 [2]: 8.01 µM
NCCN(C(=O)c1ccc(F)cc1F)c1ccc(Cl)cc1,1.24 µM,
Cc1cc(C)cc(COc2ccc(N(CCN)C(=O)c3ccc(F)cc3C(F)(F)F)cc2)c1,0.005 µM,CC50 (HepG2): 4.53 µM; CC50 [2]: 2.24 µM
NCCN(C(=O)c1ccc(Cl)cc1Cl)c1ccc(Br)cc1,0.33 µM,CC50 (HepG2): 11 µM; CC50 [2]: 11.5 µM
NCCN(C(=O)c1ccc(Cl)cc1Cl)c1ccc(-c2ccccc2)cc1,1.83 µM,
O=C(c1ccc(Cl)cc1Cl)N(Cc1cnc[nH]1)c1ccc(Cl)cc1,> 10 µM,
CC(C)c1ccc(COc2ccc(N(CCN)C(=O)c3ccccc3C(F)(F)F)cc2)cc1,0.003 µM,CC50 (HepG2): 3.99 µM; CC50 [2]: 2.22 µM
NCCN(C(=O)c1c(Cl)cccc1Cl)c1ccc(Cl)cc1,0.78 µM,CC50 (HepG2): > 50 µM; CC50 [2]: > 50 µM
NCCN(C(=O)c1ccc(Cl)cc1Cl)c1cccc(Cl)c1,3.05 µM,
NCCN(C(=O)c1ccc(Cl)cc1Cl)c1ccc(Cl)cc1,0.31 µM,CC50 (HepG2): 14.2 µM; IC50 (Cytochrome P450 3A4): 0.07 µM; CC50 [2]: 12.5 µM
NCCN(C(=O)c1ccc(Cl)cc1)c1ccc(Cl)cc1,3.12 µM,
NC(=O)CCN(C(=O)c1ccc(Cl)cc1Cl)c1ccc(Cl)cc1,> 10 µM,
CN(C)CCN(C(=O)c1ccc(Cl)cc1Cl)c1ccc(Cl)cc1,> 10 µM,

Structure (SMILES),EC50 [1],other results
NCCN(C(=O)c1ccc(Cl)cc1Cl)c1cccc(Oc2ccc(Cl)cc2)c1,2.13 µM,
NCCN(C(=O)c1cc(Cl)ccc1Cl)c1ccc(Cl)cc1,0.6 µM,
Cc1cc(C)cc(COc2ccc(N(CCN)C(=O)c3cccnc3C(F)(F)F)cc2)c1,0.003 µM,CC50 (HepG2): 6.46 µM; CC50 [2]: 4.74 µM
NCCN(C(=O)c1ccc(F)cc1C(F)(F)F)c1ccc(Cl)cc1,0.18 µM,CC50 (HepG2): 37.7 µM; CC50 [2]: 42.3 µM
NCCN(C(=O)c1ccc(Cl)cc1Cl)c1ccc(Oc2ccc(Cl)cc2)cc1,0.17 µM,
COc1ccccc1C(=O)N(CCN)c1ccc(Cl)cc1,2.51 µM,
NCCN(C(=O)c1c(Cl)cc(Cl)cc1Cl)c1ccc(Cl)cc1,0.23 µM,CC50 (HepG2): 21.5 µM; CC50 [2]: 8.5 µM
NCCN(C(=O)c1cccc(Cl)c1)c1ccc(Cl)cc1,1.2 µM,
Cc1ccc(C(=O)N(CCN)c2ccc(Cl)cc2)cc1,7 µM,
Cc1cc(C)cc(COc2ccc(N(CCN)C(=O)c3ccccc3C(F)(F)F)cc2)c1.Cl,0.01 µM,Activity [3]: 33%; CC50 (HepG2): 3.94 µM; t1/2 (Liver): > 60 min; Cmax [4]: 1.01 µM; BPR [5]: 0.96; AUC(0-t) at 8 h [6]: 6.51 µM·h; CC50 [2]: 2.94 µM
O=C(c1ccc(Cl)cc1Cl)N(c1ccc(Cl)cc1)C1CCCNC1 (stereo unspecified),> 10 µM,
NCCN(C(=O)c1ccccc1C(F)(F)F)c1ccc(Cl)cc1,0.33 µM,
COc1ccc(C(=O)N(CCN)c2ccc(Cl)cc2)c(OC)c1,4.82 µM,
O=C(c1ccc(Cl)cc1Cl)N(c1ccc(Cl)cc1)C1CCNC1 (stereo unspecified),4.47 µM,
NCCN(C(=O)c1ccc(Cl)cc1Cl)c1ccc(Oc2ccccc2Cl)cc1,3.6 µM,
O=C(c1ccc(Cl)cc1Cl)N(CCN1CCOCC1)c1ccc(Cl)cc1,> 10 µM,
NCCN(C(=O)c1c(F)c(F)c(F)c(F)c1F)c1ccc(Cl)cc1,0.54 µM,
NCCN(C(=O)c1ccc(Cl)cc1Cl)c1ccc(Oc2cccc(Cl)c2)cc1,0.28 µM,
N#CCN(C(=O)c1ccc(Cl)cc1Cl)c1ccc(Cl)cc1,> 10 µM,
CCc1ccc(COc2ccc(N(CCN)C(=O)c3ccc(Cl)cc3Cl)cc2)cc1,0.015 µM,CC50 (HepG2): 5.6 µM; CC50 [2]: 2.59 µM
Cc1ccc(N(CCN)C(=O)c2ccc(Cl)cc2Cl)cc1,1.52 µM,CC50 [2]: 24.9 µM
CC(CN)N(C(=O)c1ccc(Cl)cc1Cl)c1ccc(Cl)cc1 (stereo unspecified),3.56 µM,
NCCN(C(=O)c1ccccc1Cl)c1ccc(Cl)cc1,0.44 µM,CC50 (HepG2): > 50 µM; CC50 [2]: > 50 µM

Structure (SMILES),EC50 [1],other results
NCCN(C(=O)c1ccc(Cl)cc1Cl)c1ccc(Cl)c(Cl)c1,1.68 µM,
NCCN(C(=O)c1cc([N+](=O)[O-])ccc1Cl)c1ccc(Cl)cc1,1.2 µM,
CC(=O)NCCN(C(=O)c1ccc(Cl)cc1Cl)c1ccc(Cl)cc1,> 10 µM,
NCCN(C(=O)c1ccc(Cl)cc1Cl)c1ccc([N+](=O)[O-])cc1,> 10 µM,
NCCN(C(=O)c1ccc(Cl)cc1Cl)c1ccc(OCc2cccc(Cl)c2)cc1,0.043 µM,CC50 (HepG2): 3.78 µM; CC50 [2]: 2.38 µM
CC(C)c1ccc(COc2ccc(N(CCN)C(=O)c3ccc(F)cc3C(F)(F)F)cc2)cc1.Cl,0.002 µM,Activity [3]: 33%; CC50 (HepG2): 3.66 µM; t1/2 (Liver): 52 min; Cmax [4]: 1.78 µM; BPR [5]: 0.22; AUC(0-t) at 8 h [6]: 11.1 µM·h; CC50 [2]: 2.83 µM
O=C(c1ccc(Cl)cc1Cl)N(Cc1ncc[nH]1)c1ccc(Cl)cc1,> 10 µM,
NCCN(C(=O)c1cccnc1C(F)(F)F)c1ccc(Cl)cc1,0.59 µM,
O=C(c1ccc(Cl)cc1Cl)N(CCO)c1ccc(Cl)cc1,> 10 µM,
CNCCN(C(=O)c1ccc(Cl)cc1Cl)c1ccc(Cl)cc1,1.65 µM,
COc1ccc(C(=O)N(CCN)c2ccc(Cl)cc2)cc1,> 10 µM,
COc1cc(N(CCN)C(=O)c2ccc(Cl)cc2Cl)ccc1Cl,4.52 µM,
CC(C)(C)c1ccc(COc2ccc(N(CCN)C(=O)c3ccc(Cl)cc3Cl)cc2)cc1,0.005 µM,CC50 (HepG2): 3.83 µM; CC50 [2]: 2.12 µM
O=C(c1ccc(Cl)cc1Cl)N(Cc1ccco1)c1ccc(Cl)cc1,> 10 µM,
CC(C)c1ccc(COc2ccc(N(CCN)C(=O)c3ccccc3Br)cc2)cc1,0.001 µM,CC50 [2]: 1.91 µM
O=C(c1ccc(Cl)cc1Cl)N(c1ccc(Cl)cc1)c1cccnc1,> 10 µM,
CC(N)CN(C(=O)c1ccc(Cl)cc1Cl)c1ccc(Cl)cc1 (stereo unspecified),1.05 µM,
CC(C)c1ccc(COc2ccc(N(CCN)C(=O)c3ccccc3[N+](=O)[O-])cc2)cc1,0.001 µM,CC50 [2]: 3.03 µM
CC(C)c1ccc(N(CCN)C(=O)c2ccc(Cl)cc2Cl)cc1,3.89 µM,
Cc1ccc(C(=O)N(CCN)c2ccc(Cl)cc2)c(C)c1,0.97 µM,
NCCN(C(=O)c1cccc(Cl)c1Cl)c1ccc(Cl)cc1,0.31 µM,
NCCN(C(=O)c1ccc(Cl)c([N+](=O)[O-])c1)c1ccc(Cl)cc1,2.9 µM,
NCCN(C(=O)c1cccc(F)c1)c1ccc(Cl)cc1,4.03 µM,
